Results reported in patent US11077100B2, “Tetrahydroquinoline derivatives as P2X7 receptor antagonists” (RaQualia Pharma Inc., priority 2017, dated 2021).
pIC50: −log10 of the molar value.

How the values were obtained:
human P2X7 = human P2X7 (Homo sapiens (Human), UniProt Q99572); assay: Human P2X7 functional assay (Ca2+ influx, Fluo-4, FDSS); assay type: cell-based; conditions: antagonistic activity with respect to the human P2X7 receptor; BzATP final concentration 80 microM
Procedure, shortened: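 HEK293 cells stably expressing C-terminally FLAG-tagged human P2X7, loaded with Fluo-4. Compounds were preincubated for 10 min at room temperature, then 80 μM BzATP (final) was added and Ca2+ fluorescence read at 540 nm (480 nm excitation) by FDSS. IC50 values come from 7-point curves, duplicate wells.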

rat P2X7 = rat P2X7 (Rattus norvegicus (Rat), UniProt Q64663); assay: Rat P2X7 functional assay (Ca2+ influx, Fluo-4, FDSS); assay type: cell-based; conditions: HEK293 cells stably expressing rat P2X7; BzATP final 10 microM; 7-point dose-response; read-out: Antagonistic activities with respect to the rat P2X7 receptor (IC50)
Procedure, shortened: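 HEK293 cells stably expressing rat P2X7 (5,000/well, plated 24 h before) loaded with Fluo-4; compounds preincubated 10 min at room temperature, then Ca2+ rise after 10 microM BzATP (final) read on FDSS (480/540 nm). IC50 from 7-point curves, duplicate wells.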

Chain of rat P2X7 (Q64663 whole entry): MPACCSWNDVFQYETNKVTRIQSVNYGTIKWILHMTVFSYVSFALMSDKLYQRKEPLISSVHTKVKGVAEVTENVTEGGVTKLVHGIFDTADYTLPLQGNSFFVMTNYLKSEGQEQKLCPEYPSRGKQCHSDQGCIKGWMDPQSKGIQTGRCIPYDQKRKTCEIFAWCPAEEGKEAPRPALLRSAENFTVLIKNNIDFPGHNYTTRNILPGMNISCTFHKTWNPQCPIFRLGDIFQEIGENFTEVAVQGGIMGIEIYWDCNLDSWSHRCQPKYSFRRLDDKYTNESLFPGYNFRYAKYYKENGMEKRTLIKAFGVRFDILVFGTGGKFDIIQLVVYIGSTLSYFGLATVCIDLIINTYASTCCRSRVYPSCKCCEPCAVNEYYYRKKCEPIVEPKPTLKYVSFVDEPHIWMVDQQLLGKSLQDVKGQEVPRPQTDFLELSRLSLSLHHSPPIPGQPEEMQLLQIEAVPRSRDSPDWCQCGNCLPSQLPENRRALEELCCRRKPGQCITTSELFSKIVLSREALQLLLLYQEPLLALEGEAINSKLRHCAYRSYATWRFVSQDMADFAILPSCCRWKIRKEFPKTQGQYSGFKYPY
Chain of human P2X7 (Q99572 whole entry): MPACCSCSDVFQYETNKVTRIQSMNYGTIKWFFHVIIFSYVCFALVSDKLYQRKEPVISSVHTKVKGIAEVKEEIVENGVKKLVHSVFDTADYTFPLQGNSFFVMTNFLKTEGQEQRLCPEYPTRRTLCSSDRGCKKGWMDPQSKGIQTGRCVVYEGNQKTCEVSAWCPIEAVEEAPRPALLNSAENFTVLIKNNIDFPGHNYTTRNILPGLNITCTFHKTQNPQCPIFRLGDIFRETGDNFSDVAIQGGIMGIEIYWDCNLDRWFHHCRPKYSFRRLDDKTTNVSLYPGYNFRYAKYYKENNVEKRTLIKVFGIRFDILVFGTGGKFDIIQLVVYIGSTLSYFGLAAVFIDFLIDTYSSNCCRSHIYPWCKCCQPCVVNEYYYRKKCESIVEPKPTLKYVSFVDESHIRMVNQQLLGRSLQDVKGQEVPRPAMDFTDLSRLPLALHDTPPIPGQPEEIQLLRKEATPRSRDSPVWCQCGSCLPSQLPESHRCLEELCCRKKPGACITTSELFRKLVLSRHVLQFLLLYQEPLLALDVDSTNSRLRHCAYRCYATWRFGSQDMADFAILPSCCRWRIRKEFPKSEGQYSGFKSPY

Work on `O=C(NCc1ccc(Cl)c(F)c1F)[C@]1(F)CC[C@H](O)c2ncccc21` [Example 183, (5S,8S)-N-(4-chloro-2,3-difluorobenzyl)-5-fluoro-8-hydroxy-5,6,7,8-tetrahydroquinoline-5-carboxamide] yielded a pIC50 (human P2X7) greater than 7.30 and a pIC50 (rat P2X7) greater than 6.00.

Work on `O=C(NCc1ccc(F)c(F)c1F)[C@]1(F)CC[C@H](OCCO)c2ncccc21` [Example 345, (5S,8S)-5-fluoro-8-(2-hydroxyethoxy)-N-(2.3.4-trifluorobenzyl)-5,6,7,8-tetrahydroquinoline-5-carboxamide] yielded a pIC50 (human P2X7) greater than 7.30 and a pIC50 (rat P2X7) greater than 6.00.

Compound `O=C(NCc1ccc(Cl)cc1Cl)[C@]1(F)CC[C@](O)(CO)c2ncccc21` [Example 305, (5S,8R)-N-(2,4-dichlorobenzyl)-5-fluoro-8-hydroxy-8-(hydroxymethyl)-5,6,7,8-tetrahydroquinoline-5-carboxamide] has a pIC50 (human P2X7) greater than 7.30 and a pIC50 (rat P2X7) greater than 6.00.

`O=C(NCc1c(Cl)cccc1C(F)(F)F)[C@]1(F)CC[C@H](O)c2ncccc21` [Example 179, (5S,8S)-N-(2-chloro-6-(trifluoromethyl)benzyl)-5-fluoro-8-hydroxy-5,6,7,8-tetrahydroquinoline-5-carboxamide] showed a pIC50 (human P2X7) greater than 7.30 and a pIC50 (rat P2X7) greater than 6.00.

`O=C(NCc1cccc(Cl)c1Cl)C1CC(O)c2ncccc21` (stereo not drawn) [Example 28, N-(2,3-dichlorobenzyl)-7-hydroxy-6,7-dihydro-5H-cyclo-penta[b]pyridine-5-carboxamide] gave a pIC50 (human P2X7) of 7.00 to 7.30 and a pIC50 (rat P2X7) greater than 6.00.

For `O=C(NCc1c(Cl)cc(Cl)cc1CO)C1(F)CCC(O)c2ncccc21` (stereo not drawn) [Example 20, N-(2,4-dichloro-6-(hydroxymethyl)benzyl)-5-fluoro-8-hydroxy-5,6,7,8-tetrahydro quinoline-5-carboxamide], the pIC50 (human P2X7) was greater than 7.30 and the pIC50 (rat P2X7) was greater than 6.00.

With `Cc1cc(Cl)cc(Cl)c1CNC(=O)[C@@H]1CC[C@@H](O)c2ncccc21` [Example 84, (5R,8R)-N-(2,4-dichloro-6-methylbenzyl)-8-hy-droxy-5,6,7,8-tetrahydro-quinoline-5-carboxamide] the pIC50 (human P2X7) was greater than 7.30 and the pIC50 (rat P2X7) was greater than 6.00.

`NCC1(O)CCC(F)(C(=O)NCc2cccc(C(F)(F)F)c2Cl)c2cccnc21` (stereo not drawn) [Example 48, 8-(aminomethyl)-N-(2-chloro-3-(trifluoro-methyl)benzyl)-5-fluoro-8-hy-droxy-5,6,7,8-tetra-hydroquinoline-5-carboxamide] was tested, and the pIC50 (human P2X7) was greater than 7.30 and the pIC50 (rat P2X7) was greater than 6.00.

Compound `COC[C@]1(O)CC[C@@](F)(C(=O)NCc2ccc(F)cc2Cl)c2cccnc21` (relative stereo) [Example 42, (5S*,8S*)-N-(2-chloro-4-fluoro-benzyl)-5-fluoro-8-hydroxy-8-(methoxymethyl)-5,6,7,8-tetra-hydroquinoline-5-carboxamide] has a pIC50 (human P2X7) greater than 7.30 and a pIC50 (rat P2X7) greater than 6.00.

Work on `O=C(NCc1cccc(C(F)(F)F)c1Cl)C1CCC(O)c2ncccc21` (stereo not drawn) [Example 7, N-(2-chloro-3-(trifluoromethyl)benzyl)-8-hydroxy-5,6,7,8-tetrahydro-quinoline-5-carboxamide] yielded a pIC50 (human P2X7) greater than 7.30 and a pIC50 (rat P2X7) greater than 6.00.

With `Cc1cc(Cl)cc(Cl)c1CNC(=O)[C@@H]1C[C@@H](O)c2ncccc21` [Example 97, (5R,7R)-N-(2,4-dichloro-6-methylbenzyl)-7-hy-droxy-6,7-dihydro-5H-cyclopenta[b]pyridin-5-carboxamide] the pIC50 (human P2X7) was greater than 7.30 and the pIC50 (rat P2X7) was greater than 6.00.

In the case of `O=C1CC[C@@](F)(C(=O)NCc2cccc(C(F)(F)F)c2Cl)c2cccnc21` [Example 247, (S)-N-(2-chloro-3-(trifluoromethyl)benzyl)-5-fluoro-8-oxo-5,6,7,8-tetrahydroquinoline-5-carboxamide], the pIC50 (human P2X7) was greater than 7.30 and the pIC50 (rat P2X7) was greater than 6.00.

`O=C(NCC1(c2ccc(Cl)cc2Cl)CCOCC1)[C@]1(F)CC[C@H](O)c2ncccc21` [Example 240, (5S,8S)-N-((4-(2,4-dichlorophenyl)tetrahydro-2H-pyran-4-yl)methyl)-5-fluoro-8-hydroxy-5,6,7,8-tetrahydroquinoline-5-carboxamide] was tested, and the pIC50 (human P2X7) was 6.00 to 6.52 and the pIC50 (rat P2X7) was greater than 6.00.

With `O=C(NCc1ccc(F)cc1F)[C@]1(F)CC[C@H](OCCO)c2ncccc21` [Example 347, (5S,8S)-N-(2,4-difluorobenzyl)-5-fluoro-8-(2-hydroxyethoxy)-5,6,7,8-tetrahydroquinoline-5-carboxamide] the pIC50 (human P2X7) was 7.00 to 7.30 and the pIC50 (rat P2X7) was greater than 6.00.

Compound `O=C(NCc1c(F)cc(Cl)cc1F)[C@]1(F)CC[C@H](O)c2ncccc21` [Example 184, (5S,8S)-N-(4-chloro-2,6-difluorobenzyl)-5-fluoro-8-hydroxy-5,6,7,8-tetrahydroquinoline-5-carboxamide] has a pIC50 (human P2X7) greater than 7.30 and a pIC50 (rat P2X7) greater than 6.00.

Work on `CO[C@H]1CC[C@@](F)(C(=O)NCc2ccc(F)cc2F)c2cccnc21` [Example 342, (5S,8S)-N-(2,4-difluorobenzyl)-5-fluoro-8-methoxy-5,6,7,8-tetrahydroquinoline-5-carboxamide] yielded a pIC50 (human P2X7) of 7.00 to 7.30 and a pIC50 (rat P2X7) greater than 6.00.

With `CN1CCO[C@]2(CC[C@@](F)(C(=O)NCc3ccc(Cl)cc3Cl)c3cccnc32)C1` [Example 290, (2R,5′S)—N-(2,4-dichlorobenzyl)-5′-fluoro-4-methyl-6′,7′-dihydro-5′H-spiro[morpholine-2,8′-quinoline]-5′-carboxamide] the pIC50 (human P2X7) was greater than 7.30 and the pIC50 (rat P2X7) was greater than 6.00.

With `O=C(NCC1(N2CCOCC2)CCCCC1)[C@]1(F)CC[C@H](O)c2ncccc21` [Example 192, (5S,8S)-5-fluoro-8-hydroxy-N-((1-morpholinocyclohexyl)methyl)-5,6,7,8-tetrahydroquinoline-5-carboxamide] the pIC50 (human P2X7) was greater than 7.30 and the pIC50 (rat P2X7) was greater than 6.00.

`C[C@H](NC(=O)[C@]1(F)CC[C@H](O)c2ncccc21)c1ccc(F)cc1Cl` [Example 239, (5S,8S)-N-((S)-1-(2-chloro-4-fluorophenyl)ethyl)-5-fluoro-8-hydroxy-5,6,7,8-tetrahydroquinoline-5-carboxamide] was tested, and the pIC50 (human P2X7) was 6.52 to 7.00 and the pIC50 (rat P2X7) was greater than 6.00.

`O=C(NCc1c(Cl)cc(Cl)cc1C(F)F)[C@]1(F)CC[C@H](O)c2ncccc21` [Example 149, (5S,8S)-N-(2,4-dichloro-6-(difluoromethyl)benzyl)-5-fluoro-8-hydroxy-5,6,7,8-tetrahydroquinoline-5-carboxamide] showed a pIC50 (human P2X7) greater than 7.30 and a pIC50 (rat P2X7) greater than 6.00.

`O=C(NCc1ccc(F)cc1F)[C@]1(F)CC[C@@](O)(CO)c2ncccc21` [Example 318, (5S,8S)-N-(2,4-difluorobenzyl)-5-fluoro-8-hydroxy-8-(hydroxymethyl)-5,6,7,8-tetrahydroquinoline-5-carboxamide] gave a pIC50 (human P2X7) of 6.00 to 6.52 and a pIC50 (rat P2X7) greater than 6.00.

With `C[C@H](NC(=O)[C@]1(F)CC[C@H](O)c2ncccc21)c1ccc(Cl)c(Cl)c1Cl` [Example 168, (5S,8S)-5-fluoro-8-hydroxy-N-((S)-1-(2,3,4-trichlorophenyl)ethyl)-5,6,7,8-tetrahydroquinoline-5-carboxamide] the pIC50 (human P2X7) was 6.52 to 7.00 and the pIC50 (rat P2X7) was greater than 6.00.

Work on `O=C(NCc1c(Cl)cc(Cl)cc1CO)[C@]1(F)CC[C@@](O)(CO)c2ncccc21` [Example 316, (5S,8S)-N-(2,4-dichloro-6-(hydroxymethyl)benzyl)-5-fluoro-8-hydroxy-8-(hydroxymethyl)-5,6,7,8-tetrahydroquinoline-5-carboxamide] yielded a pIC50 (human P2X7) greater than 7.30 and a pIC50 (rat P2X7) greater than 6.00.

`CN(C)CC1(O)CCC(F)(C(=O)NCc2cccc(C(F)(F)F)c2Cl)c2cccnc21` (stereo not drawn) [Example 50, N-(2-chloro-3-(trifluoro-methyl)benzyl)-8-((di-methylamino)methyl)-5-fluoro-8-hydroxy-5,6,7,8-tetrahydroquinoline-5-carboxamide] gave a pIC50 (human P2X7) greater than 7.30 and a pIC50 (rat P2X7) greater than 6.00.

Work on `O=C(NCc1ccc(F)cc1C(F)(F)F)[C@]1(F)CC[C@@H](O)c2ncccc21` [Example 110, (5S,8R)-5-fluoro-N-(4-fluoro-2-(trifluoromethyl)benzyl)-8-hydroxy-5,6,7,8-tetrahydroquinoline-5-carboxamide] yielded a pIC50 (human P2X7) of 6.00 to 6.52 and a pIC50 (rat P2X7) greater than 6.00.

Compound `C[C@@H](NC(=O)[C@]1(F)CC[C@](C)(O)c2ncccc21)c1ccc(F)cc1Cl` [Example 270, (5S,8S)-N-((R)-1-(2-chloro-4-fluorophenyl)ethyl)-5-fluoro-8-hydroxy-8-methyl-5,6,7,8-tetrahydroquinoline-5-carboxamide] has a pIC50 (human P2X7) greater than 7.30 and a pIC50 (rat P2X7) greater than 6.00.

Work on `O=C(NCc1ccc(Cl)c(F)c1Cl)[C@]1(F)CC[C@@](O)(CO)c2ncccc21` [Example 319, (5S,8S)-N-(2,4-dichloro-3-fluorobenzyl)-5-fluoro-8-hydroxy-8-(hydroxymethyl)-5,6,7,8-tetrahydroquinoline-5-carboxamide] yielded a pIC50 (human P2X7) greater than 7.30 and a pIC50 (rat P2X7) greater than 6.00.

With `CSC[C@]1(O)CC[C@@](F)(C(=O)NCc2ccc(Cl)cc2Cl)c2cccnc21` [Example 287, (5S,8S)-N-(2,4-dichlorobenzyl)-5-fluoro-8-hydroxy-8 ((methylthio)methyl)-5,6,7,8-tetrahydroquinoline-5-carboxamide] the pIC50 (human P2X7) was greater than 7.30 and the pIC50 (rat P2X7) was greater than 6.00.

For `O=C1CCC(F)(C(=O)NCc2c(Cl)cc(Cl)cc2CO)c2cccnc21` (stereo not drawn) [Example 14, N-(2,4-dichloro-6-(hydroxymethyl)benzyl)-5-fluoro-8-oxo-5,6,7,8-tetrahydro-quinoline-5-carboxamide], the pIC50 (human P2X7) was greater than 7.30 and the pIC50 (rat P2X7) was greater than 6.00.

`O=C(NCc1ccc(F)cc1Cl)[C@]1(F)CC[C@@](O)(CSCCO)c2ncccc21` [Example 289, (5S,8S)-N-(2-chloro-4-fluorobenzyl)-5-fluoro-8-hydroxy-8-(((2-hydroxyethyl)thio)methyl)-5,6,7,8-tetrahydroquinoline-5-carboxamide] gave a pIC50 (human P2X7) greater than 7.30 and a pIC50 (rat P2X7) greater than 6.00.
